25 compounds from patent US9296745B2, “Diacylglycerol acyltransferase 2 inhibitors” (Pfizer Inc., priority 2012, dated 2016) can be followed below.

Read-outs that look alike come from different tables or passages of the source.

The assay deals with Human DGAT2 (hDGAT2) (Homo sapiens (Human), UniProt Q96PD7). The assay can be described thus: In vitro DGAT2 assay, IC50 determination with hDGAT2 membrane fraction. It is filed as biochemical. The settings on record: read-out: DGAT2 IC50. As for the experimental part: Recombinant baculovirus for the FLAG-tagged hDGAT2 was generated in SF9 insect cells using Bac-to-Bac baculovirus expression system (Invitrogen) according to the manufacturer's protocol. For the expression of hDGAT2, SF9 cells (20 L) grown in Sf900II media were infected with hDGAT2 baculovirus at a multiplicity of infection of 1 in a Wave Bioreactor System 20/50P wave bag (GE Healthcare). After 40 hours of infection, the cells were then harvested by centrifugation at 5,000×g. The cell pellets were washed by resuspending in phosphate buffered saline (PBS) and collected by centrifugation at 5,000×g. The cell paste was flash frozen in liquid N2 and stored at −80° C. until needed. All operations below were at 4° C. unless otherwise noted. The cells were resuspended in lysis buffer (50 mM Tris-HCl, pH 8.0, 250 mM sucrose) including 1 mM ethylenediaminetetraacetic acid (EDTA) and the complete protease inhibitor cocktail (Roche Diagnostics) at a ratio of 3 ml buffer per 1 g cell paste. The cells were lysed by dounce homogenizer. The cell debris was removed by centrifugation at 1,000×g for 20 min, and the supernatant was centrifuged at 100,000×g for 1 hour. The resulting pellet was rinsed three times by filling ultracentrifuge tubes to the top with ice cold PBS before decanting. The washed pellet was resuspended with gentle stirring for 1 hour in lysis buffer containing 8 mM 3-[(3-cholamidopropyl)dimethylammonio]-1-propanesulfonate (CHAPS) at a ratio of 1 mL buffer per 1 g of original cell paste and centrifuged again at 100,000×g for 1 hour. The resulting supernatant (hDGAT2 membrane fraction) was aliquotted, flash frozen in liquid N2, and stored at −80° C. until use.
To 1 μL of compounds dissolved in 100% DMSO and spotted at the bottom of each well, 5 μL of 0.04% bovine serum albumin (BSA) (fatty acid free, Sigma Aldrich) was added and the mixture was incubated at room temperature for 20 minutes. To this mixture, 10 μL of hDGAT2 membrane fraction (0.01 mg/mL) diluted in 100 mM Hepes-NaOH, pH 7.4, 20 mM MgCl2 containing 200 nM methyl arachidonyl fluorophosphonate (Cayman Chemical; dried from ethyl acetate stock solution under argon gas and dissolved in DMSO as 5 mM stock) was added. […] The reaction mixtures were incubated at room temperature for 40 min and the reactions were stopped by addition of 5 μL of 1% H3PO4. After the addition of 45 μL MicroScint-E (Perkin-Elmer), plates were sealed with Top Seal-A covers (Perkin-Elmer) and phase partitioning of substrates and products was achieved using a HT-91100 microplate orbital shaker (Big Bear Automation, Santa Clara, Calif.). Plates were centrifuged at 2,000×g for 1 min in an Allegra 6R Centrifuge (Beckman Coulter) and then were sealed again with fresh covers before reading in a 1450 Microbeta Wallac Trilux Scintillation Counter (Perkin Elmer). DGAT2 activity was measured by quantifying the generated product [^14C]tridecanoylglycerol in the upper organic phase.
Inhibitors were tested at eleven different concentrations to generate IC50 values for each compound. […] Results are reported as geometric mean IC50 values.

[1] abbreviates: geometric mean, background for complete inhibition of DGAT2 obtained with 50 μM (1R,2R)-2-({3′-Fluoro-4′-[(6-fluoro-1,3-benzothiazol-2-yl)amino]-1,1′-biphenyl-4-yl}carbonyl)cyclopentanecarboxylic acid.

Human DGAT2 (hDGAT2), sequence (Q96PD7 whole entry): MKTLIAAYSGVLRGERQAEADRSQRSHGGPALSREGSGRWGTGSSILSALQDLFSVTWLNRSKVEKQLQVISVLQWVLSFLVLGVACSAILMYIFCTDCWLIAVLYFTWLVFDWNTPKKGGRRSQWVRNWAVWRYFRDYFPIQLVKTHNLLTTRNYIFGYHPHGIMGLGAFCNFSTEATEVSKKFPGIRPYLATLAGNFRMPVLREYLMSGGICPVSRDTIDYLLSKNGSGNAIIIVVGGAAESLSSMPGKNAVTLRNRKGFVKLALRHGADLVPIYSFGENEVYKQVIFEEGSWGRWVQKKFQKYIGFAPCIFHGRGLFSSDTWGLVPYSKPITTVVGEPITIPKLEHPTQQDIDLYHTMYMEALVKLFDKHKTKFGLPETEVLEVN

Consider “[(R)-1-{2-[1-(4-Chloro-1H-pyrazol-1-yl)cyclopropyl]-3H-imidazo[4,5-b]pyridin-5-yl}(2,2,6,6-^2H4)piperidin-3-yl](pyrrolidin-1-yl)methanone [Example 190]”, for which the IC50 is 35.9 nM.

For `O=C([C@@H]1CCCN(c2ccc3nc(C4(c5ncccn5)CC4)[nH]c3n2)C1)N1CCCC1` [Example 204, (R)-(1-(2-(1-(Pyrimidin-2-yl)cyclopropyl)-3H-imidazo[4,5-b]pyridin-5-yl)piperidin-3-yl)(pyrrolidin-1-yl)methanone], under setting [1], the IC50 was 656 nM.

With `COc1cc(C(=O)O)cc(-c2nc3ccc(N4CCC[C@@H](C(=O)N5CCCC5)C4)nc3[nH]2)n1` [Example 126, (R)-2-Methoxy-6-(5-(3-(pyrrolidine-1-carbonyl)piperidin-1-yl)-3H-imidazo[4,5-b]pyridin-2-yl)isonicotinic acid], the IC50 under setting [1] amounted to 3470 nM.

Consider `O=C([C@@H]1CCCN(c2ccc3nc(-c4cccc(N5CCCC5)n4)[nH]c3n2)C1)N1CCCC1` [Example 38, (R)-Pyrrolidin-1-yl(1-(2-(6-(pyrrolidin-1-yl)pyridin-2-yl)-3H-imidazo[4,5-b]pyridin-5-yl)piperidin-3-yl)methanone], for which the IC50 under setting [1] was 7.81 nM.

As to `N#CC1(c2cccc(-c3nc4ccc(N5CCC[C@@H](C(=O)N6CCCC6)C5)nc4[nH]3)n2)CC1` [Example 156, (R)-1-(6-(5-(3-(Pyrrolidine-1-carbonyl)piperidin-1-yl)-1H-imidazo[4,5-b]pyridin-2-yl)pyridin-2-yl)cyclopropanecarbonitrile], the IC50 under setting [1] was 275 nM.

For `O=C([C@@H]1CCCN(c2ccc3nc(C4(c5cnccn5)CC4)[nH]c3n2)C1)N1CCCC1` [Example 203, (R)-(1-(2-(1-(Pyrazin-2-yl)cyclopropyl)-3H-imidazo[4,5-b]pyridin-5-yl)piperidin-3-yl)(pyrrolidin-1-yl)methanone], the IC50 under setting [1] is 176 nM.

Regarding `O=C([C@@H]1CCCN(c2ccc3nc(-c4ccnc(C5CC5)n4)[nH]c3n2)C1)N1CCC[C@@H]1CO` [Example 66, ((R)-1-(2-(2-Cyclopropylpyrimidin-4-yl)-3H-imidazo[4,5-b]pyridin-5-yl)piperidin-3-yl)((R)-2-(hydroxymethyl)pyrrolidin-1-yl)methanone], the IC50 under setting [1] was 1050 nM.

With `O=C([C@@H]1CCCN(c2ccc3nc(-c4ccnc(C5CC5)n4)[nH]c3n2)C1)N1CC[C@H](F)C1` [Example 65, ((R)-1-(2-(2-Cyclopropylpyrimidin-4-yl)-3H-imidazo[4,5-b]pyridin-5-yl)piperidin-3-yl)((S)-3-fluoropyrrolidin-1-yl)methanone], the IC50 under setting [1] worked out at 59.3 nM.

For the compound `Cn1cc(Cl)c(-c2nc3ccc(N4CCC[C@@H](C(=O)N5CCCC5)C4)nc3[nH]2)n1` [Example 20, (R)-(1-(2-(4-Chloro-1-methyl-1H-pyrazol-3-yl)-3H-imidazo[4,5-b]pyridin-5-yl)piperidin-3-yl)(pyrrolidin-1-yl)methanone], the IC50 under setting [1] turned out to be 221 nM.

Turning to `O=C([C@@H]1CCCN(c2ccc3nc(-c4ccnc(C5CC5)n4)[nH]c3n2)C1)N1CCC(F)(F)C1` [Example 131, (R)-(1-(2-(2-Cyclopropylpyrimidin-4-yl)-3H-imidazo[4,5-b]pyridin-5-yl)piperidin-3-yl)(3,3-difluoropyrrolidin-1-yl)methanone], the IC50 under setting [1] turned out to be 34.4 nM.

Turning to `O=C([C@@H]1CCCN(c2ccc3nc(C(F)(F)c4ccccc4)[nH]c3n2)C1)N1CCCC1` [Example 166, (R)-(1-(2-(Difluoro(phenyl)methyl)-3H-imidazo[4,5-b]pyridin-5-yl)piperidin-3-yl)(pyrrolidin-1-yl)methanone], the IC50 under setting [1] came to 2280 nM.

On to `O=C([C@@H]1CCCN(c2ccc3nc(-c4cccc(OC(F)F)c4)[nH]c3n2)C1)N1CCCC1` [Example 43, (R)-(1-(2-(3-(Difluoromethoxy)phenyl)-3H-imidazo[4,5-b]pyridin-5-yl)piperidin-3-yl)(pyrrolidin-1-yl)methanone], for which the IC50 under setting [1] was 7.41 nM.

As to `O=C([C@@H]1CCCN(c2ccc3nc(-c4cc(C5CC5)ccn4)[nH]c3n2)C1)N1CCCC1` [Example 98, (R)-(1-(2-(4-Cyclopropylpyridin-2-yl)-3H-imidazo[4,5-b]pyridin-5-yl)piperidin-3-yl)(pyrrolidin-1-yl)methanone], the IC50 under setting [1] stood at 94.4 nM.

Regarding `C[C@H]1CC[C@@H](C(=O)N2CCCC2)CN1c1ccc2nc(C3(n4cc(Cl)cn4)CC3)[nH]c2n1` [Example 216, ((3R,6S)-1-(2-(1-(4-Chloro-1H-pyrazol-1-yl)cyclopropyl)-3H-imidazo[4,5-b]pyridin-5-yl)-6-methylpiperidin-3-yl)(pyrrolidin-1-yl)methanone], the IC50 under setting [1] came to 9200 nM.

For `c1cc(-c2nc3ccc(N4CCC[C@H](c5nnc6n5CCC6)C4)nc3[nH]2)nc(C2CC2)n1` [Example 168, (S)-2-(2-cyclopropylpyrimidin-4-yl)-5-(3-(6,7-dihydro-5H-pyrrolo[2,1-c][1,2,4]triazol-3-yl)piperidin-1-yl)-3H-imidazo[4,5-b]pyridine], the IC50 under setting [1] came to 1390 nM.

For `O=C([C@@H]1CCCN(c2ccc3nc(-c4nccc(C5CC5)n4)[nH]c3n2)C1)N1CCCC1` [Example 99, (R)-(1-(2-(4-Cyclopropylpyrimidin-2-yl)-3H-imidazo[4,5-b]pyridin-5-yl)piperidin-3-yl)(pyrrolidin-1-yl)methanone], the IC50 under setting [1] worked out at 72.5 nM.

As to `C[C@@H]1CCN(c2ccc3nc(-c4cccc(OC(F)F)c4)[nH]c3n2)C[C@@H]1C(=O)N(C)C` [Example 180, (3R,4R)-1-(2-(3-(Difluoromethoxy)phenyl)-3H-imidazo[4,5-b]pyridin-5-yl)-N,N,4-trimethylpiperidine-3-carboxamide], under setting [1], the IC50 was 434 nM.

As to `COc1cccc(-c2nc3ccc(N4CCC[C@@H](C(=O)N5CCCC5)C4)nc3[nH]2)c1` [Example 36, (R)-(1-(2-(3-Methoxyphenyl)-3H-imidazo[4,5-b]pyridin-5-yl)piperidin-3-yl)(pyrrolidin-1-yl)methanone], the IC50 under setting [1] was determined as 20.7 nM.

For `CC(C)(c1nc2ccc(N3CCC[C@@H](C(=O)N4CCCC4)C3)nc2[nH]1)n1cc(Cl)cn1` [Example 188], the IC50 under setting [1] is 31.4 nM.

For `CN(C)C(=O)c1cccc(-c2nc3ccc(N4CCC[C@@H](C(=O)N5CCCC5)C4)nc3[nH]2)n1` [Example 173, (R)—N,N-Dimethyl-6-(5-(3-(pyrrolidine-1-carbonyl)piperidin-1-yl)-3H-imidazo[4,5-b]pyridin-2-yl)picolinamide], the IC50 under setting [1] stood at 1250 nM.

As for `CN(C)C(=O)[C@@H]1CCCN(c2ccc3nc(-c4cccc(OC(F)F)c4)[nH]c3n2)C1` [Example 60, (R)-1-(2-(3-(Difluoromethoxy)phenyl)-3H-imidazo[4,5-b]pyridin-5-yl)-N,N-dimethylpiperidine-3-carboxamide], the IC50 under setting [1] was determined as 892 nM.

For `O=C([C@@H]1CCCN(c2ccc3nc(-c4nc(C5CC5)cs4)[nH]c3n2)C1)N1CCCC1` [Example 84, (R)-(1-(2-(4-Cyclopropylthiazol-2-yl)-3H-imidazo[4,5-b]pyridin-5-yl)piperidin-3-yl)(pyrrolidin-1-yl)methanone], the IC50 under setting [1] was determined as 9.55 nM.

In the case of `O=C([C@@H]1CCCN(c2ccc3nc(-c4ccc(OC(F)(F)F)cc4)[nH]c3n2)C1)N1CCCC1` [Example 34, (R)-Pyrrolidin-1-yl(1-(2-(4-(trifluoromethoxy)phenyl)-3H-imidazo[4,5-b]pyridin-5-yl)piperidin-3-yl)methanone], the IC50 under setting [1] turned out to be 24.8 nM.

Take `O=C([C@@H]1CCCN(c2ccc3nc(-c4cccc(C5(O)COC5)n4)[nH]c3n2)C1)N1CCCC1` [Example 111, (R)-(1-(2-(6-(3-Hydroxyoxetan-3-yl)pyridin-2-yl)-3H-imidazo[4,5-b]pyridin-5-yl)piperidin-3-yl)(pyrrolidin-1-yl)methanone]: under setting [1], the IC50 was 697 nM.

With `O=C([C@@H]1CCCN(c2ccc3nc(-c4ccnc(C5CC5)n4)[nH]c3n2)C1)N1C[C@@H](F)[C@H](F)C1` [Example 68, ((R)-1-(2-(2-Cyclopropylpyrimidin-4-yl)-3H-imidazo[4,5-b]pyridin-5-yl)piperidin-3-yl)((3R,4R)-3,4-difluoropyrrolidin-1-yl)methanone], the IC50 under setting [1] amounted to 54.7 nM.

The term IC50 denotes the concentration that gives 50% inhibition.
